# Reference: PMC8725537, “Assessment of NSAIDs as potential inhibitors of the fatty acid amide hydrolase I (FAAH-1) using three different primary fatty acid amide substrates in vitro” (BMC Pharmacology & Toxicology, 2022)
# Like-named read-outs stand apart in the source and are kept apart here.
# What was measured:
# FAAH-1 [1] = molecular target: T1, FAAH-1 (Rattus norvegicus, UniProt P97612); assay: Mode of inhibition of rat liver FAAH-1 hydrolysis of oleamide and arachidonamide (Michaelis-Menten with inhibitor); assay type: biochemical; conditions: for Mode of inhibition of FAAH activity: Michaelis-Menten analysis, oleamide and arachidonamide substrates; for Vmax (nmol/min/mg protein): Control (no inhibitor), compound as substrate
# T1 construct: Liver obtained from male Wister rats; from tissue; host or cells: rat liver homogenate, 20,000 g membrane pellet (male Wistar rats, Charles River Laboratories)
# T1 sequence (P97612 1-579): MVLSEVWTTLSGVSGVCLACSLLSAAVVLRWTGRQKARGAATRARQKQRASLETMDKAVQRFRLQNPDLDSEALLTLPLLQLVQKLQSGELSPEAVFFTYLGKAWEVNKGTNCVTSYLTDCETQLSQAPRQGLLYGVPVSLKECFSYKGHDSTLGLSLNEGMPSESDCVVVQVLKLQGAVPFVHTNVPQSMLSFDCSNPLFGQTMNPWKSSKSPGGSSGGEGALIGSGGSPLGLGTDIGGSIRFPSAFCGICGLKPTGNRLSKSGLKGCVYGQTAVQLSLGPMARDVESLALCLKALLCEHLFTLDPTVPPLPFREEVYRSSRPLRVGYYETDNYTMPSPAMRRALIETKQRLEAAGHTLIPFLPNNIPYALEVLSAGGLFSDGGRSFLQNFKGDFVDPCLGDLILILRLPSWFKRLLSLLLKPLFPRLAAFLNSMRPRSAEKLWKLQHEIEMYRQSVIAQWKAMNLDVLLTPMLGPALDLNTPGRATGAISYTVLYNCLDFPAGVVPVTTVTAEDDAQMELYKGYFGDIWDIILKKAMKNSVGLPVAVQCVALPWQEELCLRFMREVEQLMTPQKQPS
# Description: (§1) FAAH-1 activity was assayed essentially as described previously. Briefly, rat liver homogenate was pre-incubated at 37 °C with shaking (50 × 10 rpm) for 10 min in 0.2 M phosphate buffer, pH 7.4 in 96-well microtitre plates (Thermo Scientific Inc., Waltham, USA) prior to substrate addition and incubation at 37 °C for 30 min. The 100 μl total assay reaction mixtures were halted with an equivalent volume of o-phthaldehyde (OPA) developing solution (0.4 M potassium phosphate buffer, pH 11.5) and incubated further at 37 °C for 15 min before assessing fluorescence using a FLUOstar Galaxy (Excitation 390 nm, Emission 450–10 nm) (BMG LABTECH GmbH, Ortenberg, Germany). Substrate blank and a control containing 0.2 M phosphate buffer, pH 7.4, were incorporated into the experiments.
# (§2) Data obtained were entered into a Microsoft Excel 2010 spread sheet and analysed with GraphPad Prism computer software programme (GraphPad Software Inc., San Diego, CA USA). Effect of 500 μM concentration of NSAIDs (SIGMA-ALDRICH, Poole, UK) on each enzyme activity was analysed by removing the baseline line. Each specific activity was then plotted as percentage of control. Specific activity obtained at each inhibitor concentration for the concentration-inhibition curves were normalized and analysed using the inbuilt log (inhibitor) versus response variable slope (robust fit) and were constrained at the bottom (= 0.0%). Each specific activity was then plotted as percentage of the control. To determine the mode of inhibition, Vmax values were initially extrapolated from the (NH4)2SO4 standard curve plotted using the inbuilt second order polynomial (quadratic) Michaelis-Menten enzyme kinetics. These values were then adjusted using the protein concentrations of the preparations obtained from the Lowry protocol (Fig. SS1 and SS2).
# Unlike aspirin which is an irreversible inhibitor of COX enzymes, most other NSAIDs are reversible competitive inhibitors of the COX enzymes.
# Data are mean ± SEM (Standard Error of the Mean) of four separate preparations (n = 4) conducted in triplicate
# FAAH-1 [2] = molecular target: T1, FAAH-1; assay: Inhibition of rat liver FAAH-1 oleamide hydrolase activity by NSAIDs (500 μM screen and concentration-inhibition curves); assay type: biochemical; conditions: for FAAH-1 oleamide hydrolase activity, % of control: 500 μM NSAID, oleamide substrate, rat liver
# Description: (§3) FAAH-1 activity was studied in rat liver homogenate.
# (§4) Liver obtained from male Wister rats (150–250 g, Charles River Laboratories, Wilmington, USA) which had been stored at − 40 °C was thawed. A volume of 6 ml/g wet weight of rat liver was homogenized in 0.2 M potassium phosphate buffer, pH 7.4 using a hand held homogenizer (Ultra-turrax) (Merck KGaA, Darmstadt, Germany). The resulting mixture was centrifuged at 250 g for 10 min after which the pellet obtained was re-homogenised and centrifuged as aforementioned. The supernatants were combined and centrifuged at 20,000 g for 30 min, after which the membrane containing pellet was re-suspended in 1:1^w/v 0.2 M potassium phosphate buffer, pH 7.4, and stored in 1 ml aliquots at − 40 °C.
# FAAH-1 activity was assayed essentially as described previously. Briefly, rat liver homogenate was pre-incubated at 37 °C with shaking (50 × 10 rpm) for 10 min in 0.2 M phosphate buffer, pH 7.4 in 96-well microtitre plates (Thermo Scientific Inc., Waltham, USA) prior to substrate addition and incubation at 37 °C for 30 min. […] Substrate blank and a control containing 0.2 M phosphate buffer, pH 7.4, were incorporated into the experiments.
# as §2, with “Effect” for “Data obtained were entered into a Microsoft Excel 2010 spread sheet and analysed with GraphPad Prism computer software programme (GraphPad Software Inc., San Diego, CA USA). Effect”
# FAAH-1 in rat brain = tested on: FAAH-1 in rat brain; design: method as in ref 41 = [41]; 41. Garle MJ, Clark JS and Alexander SPH. A fluorescence-derivatisation assay for fatty acid amide hydrolase activity. 2005; pA2 Online. E-journal of the British Pharmacological Society.; conditions: oleamide hydrolysis, rat brain ref 41; cited from earlier work
# [3] = tested on: FAAH-1 in rat liver preparations; conditions: cited from earlier work
# rat recombinant FAAH = tested on: rat recombinant FAAH; design: method as in PMID 10571985; conditions: pH 9, oleamide hydrolysis ref 45; read-out: affinity (Km); cited from earlier work
# FAAH-1 [4] = molecular target: T1, FAAH-1; assay: Rat liver FAAH-1 hydrolysis of primary fatty acid amide substrates (Michaelis-Menten, OPA fluorescence ammonia assay); assay type: biochemical; conditions: for Vmax / Km: rat liver FAAH-1, compound as substrate, pH 7.4, mean ± SEM n = 4
# Description: as §3, §4, §1, §2
# Fig. 1 Hydrolysis of oleamide (a), arachidonamide (b) and stearoylamide (c) by rat liver FAAH-1 activity. Rat liver FAAH-hydrolytic activity of each primary amide substrate in vitro, was assayed by quantification of ammonia released after hydrolysis. Ammonia generated in the presence of sulphite ions is reacted with alkaline o-phthaldehyde (OPA) to generate the stable fluorescent isoindole derivative (1-sulphonatoisoindole) which is quantified by fluorescent spectroscopy. Four separate experiments with three replicates on the same microtiter plate were conducted for each substrate using different rat liver preparations. Data are mean ± SEM (Standard Error of the Mean) of four separate preparations (n = 4) conducted in triplicate
# FAAH = tested on: FAAH; design: method as in ref 68 = [68]; 68. Dongdem JT Dawson SP Alexander SPH Characterization of [3-(3-carbamoylphenyl) phenyl] N-cyclohexyl carbamate, an inhibitor of FAAH: effect on rat liver FAAH and HEK293T-FAAH-2 deamination of oleam; conditions: cited from earlier work
# rat brain FAAH-1 = tested on: rat brain FAAH-1; design: method as in PMID 23240907; conditions: rat brain FAAH-1, pH 7.4 ref 52; cited from earlier work
# [5] = rat liver oleamide hydrolase activity, NSAID 4.0 × 10^-6 to 1.024 × 10^-3 M in absolute ethanol, n = 4
smiles,measurement,setting,value
Cc1ccc(Cl)c(Nc2ccccc2C(=O)O)c1Cl [Meclofenamic acid],Mode of inhibition of FAAH activity,FAAH-1 [1],non-competitive type inhibition
same,Vmax (nmol/min/mg protein) in presence of inhibitor,"FAAH-1 [1]; substrate arachidonamide, + 100 μM inhibitor",6.7 ± 1.0 nmol/min/mg protein
same,Vmax (nmol/min/mg protein) in presence of inhibitor,"FAAH-1 [1]; substrate oleamide, + 100 μM inhibitor",2.9 ± 0.1 nmol/min/mg protein
same,"FAAH-1 oleamide hydrolase activity, % of control",FAAH-1 [2],complete inhibition
same,IC50,FAAH-1 [2]; [5],269 µM
CCCCCCCC/C=C\CCCCCCCC(N)=O [Oleamide],Km,FAAH-1 in rat brain,179 µM
same,Vmax,"[3]; oleamide hydrolysis, rat liver preparations ref 41",15 nmol.min^− 1.mg protein^− 1
same,Km,"[3]; oleamide hydrolysis, rat liver preparations ref 41, read-out: Km",129 µM
same,Vmax,[3]; rat liver FAAH-catalysed oleamide hydrolysis ref 44,5.7 nmol.min^− 1.mg protein^− 1
same,Km,"[3]; rat liver FAAH-catalysed oleamide hydrolysis ref 44, read-out: affinity (Km)",104 µM
same,Km,rat recombinant FAAH,37 ± 7 µM
same,Vmax (nmol/min/mg protein),FAAH-1 [1],4.6 ± 0.5 nmol/min/mg protein
same,Vmax,FAAH-1 [4],8.9 ± 1.1 nmol/min/mg protein
same,Km,FAAH-1 [4]; read-out: Km,177 ± 15.5 µM
O=C(O)Cc1ccccc1Nc1c(Cl)cccc1Cl [Diclofenac],"FAAH-1 oleamide hydrolase activity, % of control",FAAH-1 [2],below 50 % of control
same,IC50,FAAH-1 [2]; [5],1260 µM
CC(=O)Oc1ccccc1C(=O)O [acetyl salicylic acid],"FAAH-1 oleamide hydrolase activity, % of control",FAAH-1 [2],appeared to enhance enzyme activity
O=C(O)c1cc(-c2ccc(F)cc2F)ccc1O [Diflunisal],"FAAH-1 oleamide hydrolase activity, % of control",FAAH-1 [2],below 50 % of control
same,IC50,FAAH-1 [2]; [5],708 µM
Cc1onc(-c2ccccc2)c1-c1ccc(S(N)(=O)=O)cc1 [Valdecoxib],IC50,FAAH-1 [2]; [5],1000 µM
CCCCCCCCCCCCCCCCCC(N)=O [Stearoylamide],Vmax,FAAH-1 [4],2.5 ± 0.6 nmol/min/mg protein
same,Km,FAAH-1 [4]; read-out: Km,4.6 ± 0.8 µM
CCCCC/C=C\C/C=C\C/C=C\C/C=C\CCCC(N)=O [Arachidonamide],Vmax (nmol/min/mg protein),FAAH-1 [1],8.4 ± 1.2 nmol/min/mg protein
same,FAAH-1 capacity (Vmax) higher compared with oleamide,FAAH-1 [4]; rat liver FAAH-1,12%
same,FAAH-1 capacity (Vmax) higher than that for stearoylamide,FAAH-1 [4]; rat liver FAAH-1,75%
same,Km,FAAH-1 [4],44.9 ± 7 µM
same,Vmax,FAAH-1 [4],10.1 ± 3.0 nmol/min/mg protein
NC(=O)c1cccc(-c2cccc(OC(=O)NC3CCCCC3)c2)c1 [URB597],Mode of FAAH inhibition,FAAH,uncompetitive
CC(C)Cc1ccc(C(C)C(=O)O)cc1 (stereo not drawn) [Ibuprofen],pIC50,rat brain FAAH-1,3.1
CC1=C(CC(=O)O)c2cc(F)ccc2/C1=C\c1ccc([S+](C)[O-])cc1 (stereo not drawn) [Sulindac],"FAAH-1 oleamide hydrolase activity, % of control",FAAH-1 [2],below 50 % of control
same,IC50,FAAH-1 [2]; [5],224 µM
O=C(c1ccccc1)c1ccc2n1CCC2C(=O)O (stereo not drawn) [Ketorolac],"FAAH-1 oleamide hydrolase activity, % of control",FAAH-1 [2],below 50 % of control
same,IC50,FAAH-1 [2]; [5],1230 µM
CC(C(=O)O)c1ccc2c(c1)[nH]c1ccc(Cl)cc12 (stereo not drawn) [Carprofen],pIC50,rat brain FAAH-1,4.10
same,"FAAH-1 oleamide hydrolase activity, % of control",FAAH-1 [2],below 50 % of control
CC1=C(CC(=O)O)c2cc(F)ccc2/C1=C\c1ccc(S(C)(=O)=O)cc1 [Sulindac sulphone],IC50,FAAH-1 [2]; [5],447 µM
CCO [ethanol],"FAAH-1 activity (%) (basal oleamide hydrolysis, % of control)",FAAH-1 [2]; 15% assay ethanol,95 ± 1%
same,"FAAH-1 activity (%) (basal oleamide hydrolysis, % of control)",FAAH-1 [2]; 20% assay ethanol,78 ± 1%
same,"FAAH-1 activity (%) (basal oleamide hydrolysis, % of control)",FAAH-1 [2]; 25% assay ethanol,76 ± 4%
CC(=O)Nc1ccc(O)cc1 [Acetaminophen],"FAAH-1 oleamide hydrolase activity, % of control",FAAH-1 [2],appeared to enhance enzyme activity
Cc1c(N(C)CS(=O)(=O)[O-])c(=O)n(-c2ccccc2)n1C.[Na+] [Dipyrone],pIC50 (M),FAAH-1 [2]; [5],2.77 ± 0.07 M
COc1ccc2c(c1)c(CC(=O)O)c(C)n2C(=O)c1ccc(Cl)cc1 [Indomethacin],pIC50,rat brain FAAH-1,4.18
same,Mode of inhibition of FAAH activity,FAAH-1 [1],non-competitive type inhibition
same,Vmax (nmol/min/mg protein) in presence of inhibitor,"FAAH-1 [1]; substrate arachidonamide, + 200 μM inhibitor",7.2 ± 0.9 nmol/min/mg protein
same,Vmax (nmol/min/mg protein) in presence of inhibitor,"FAAH-1 [1]; substrate oleamide, + 200 μM inhibitor",3.8 ± 0.4 nmol/min/mg protein
